In patent US12492215B2, “Pyrrolotriazine compounds acting as MNK inhibitor” (JUMBO DRUG BANK CO., LTD., priority 2019, dated 2025):
Structures can show the parent of a compound that is named as a salt.

Legend:
[1] = Pharmacokinetic evaluation in mice; assay type: in vivo, CD-1 mice; conditions: male, CD-1, mouse, plasma; for bioavailability: PO 2 mg/kg vs IV 0.5 mg/kg, read-out: Bioavailability F; for AUC(0-t) / half-life: PO 2 mg/kg; for AUC(0-t): read-out: Area under the plasma drug concentration-time curve AUC0-last PO; for Cmax: intragastric 2 mg/kg, intravenous 0.5 mg/kg (route of Cmax not given), read-out: Peak concentration Cmax; for clearance / Vd: intravenous injection 0.5 mg/kg; for clearance: read-out: Clearance CL; for Vd: read-out: Tissue distribution Vdss; for half-life: read-out: Half-life T1/2 (PO) (converted)
Experimental: 4. Pharmacokinetic Evaluation of Compounds Disclosed Herein
Purpose of experiment: to test pharmacokinetic parameters of the compounds in CD-1 mice
Experimental materials: CD-1 mice (Male, 7-9 weeks age, Shanghai Sippe-Bk Lab Animal Co., Ltd.)
Experimental operation: pharmacokinetic characteristics of the compounds after intravenous injection and oral administration for the rodent were tested by a standard scheme, and the candidate compounds were each formulated into a clear solution or a uniform suspension in the experiments and intravenously administered and intragastrically administered once to a mouse. The vehicle for the intravenous injection and oral administration was […] hydroxypropyl-β-cyclodextrin aqueous solution or normal saline solution. […] Two mice were subjected to intravenous injection at a dose of 0.5 mg/kg, and plasma samples were collected at 0 h (before administration) and 0.083, 0.25, 0.5, 1, 2, 4, 8, 12 and 24 h (after administration); the other two mice were subjected to intragastric administration at a dose of 2 mg/kg, and plasma samples were collected at 0 h (before administration) and 0.25, 0.5, 1, 2, 4, 8, 12 and 24 h (after administration). Whole blood samples within 24 h were collected and each centrifuged at 3000 g for 10 min. The supernatant was separated to obtain plasma sample, and acetonitrile solution containing internal standard whose volume is […] that of the plasma sample was added to precipitate the protein. The mixture was vortexed at 800 rpm for 10 min, and then 1 μL of supernatant was taken for injection. Plasma concentrations were quantitatively analyzed by LC-MS/MS method, and pharmacokinetic parameters, such as peak concentration (Cmax), clearance (CL), half-life (T1/2), tissue distribution (Vdss), area under the plasma drug concentration-time curve (AUC0-last) and bioavailability (F), were calculated.

[2] = tested on: eIF4E phosphorylation of HCT116 cell strain; experiment: Inhibition of eIF4E phosphorylation in HCT116 cell strain (AlphaLISA p-eIF4E Ser209); assay type: cell-based; conditions: Homo sapiens, HCT-116; HCT116 cells, 3 h incubation
Source text: 3. In Vitro Evaluation of Inhibitory Activity of Compounds Disclosed Herein Against eIF4E Phosphorylation Purpose of experiment: to test the inhibition (IC50) of the compounds against eIF4E phosphorylation of HCT116 cell strain. Experimental materials: HCT116 cells (ATCC), RPM11640 medium (Life technology), fetal bovine serum (Hyclone), double antibodies (penicillin, streptomycin) (Millipore), phosphate buffer (Corning), 384-well cell plate (PerkinElmer), and AlphaLISA® SureFire® Ultra™ p-eIF4E (Ser209) Assay Kit (PerkinElmer). Experimental operation: HCT116 cells were digested to make a cell suspension, which was then plated in a 96-well plate. The cell plate was then placed in an incubator for overnight incubation. Compounds were diluted to corresponding concentrations and added to the cell plate, and the resulting mixture was incubated for 3 h. The cells were subsequently lysed with a lysis buffer, and the lysate was transferred to a 384-well plate. A mixed receptor was freshly prepared according to the kit instructions and added to the 384-well plate, and the mixture was incubated at room temperature for 1 h. Then a mixed donor was freshly prepared according to the kit instructions and added to the 384-well plate, and the resulting mixture was incubated at room temperature for 1 h. The signals were read on EnVision using the standard AlphaLISA program, curves were fitted using Graphpad prism, and the IC50 values were calculated.

MNK2 (h) protein kinase = MNK2 (h) protein kinase (Homo sapiens (Human), UniProt Q9HBH9); experiment: Inhibitory activity against MNK2 protein kinase (KinaseProfiler, 33P-ATP filter-binding); assay type: biochemical; conditions: myelin basic protein substrate, 40 min room temperature
MNK2 (h) protein kinase, sequence (Q9HBH9 whole entry): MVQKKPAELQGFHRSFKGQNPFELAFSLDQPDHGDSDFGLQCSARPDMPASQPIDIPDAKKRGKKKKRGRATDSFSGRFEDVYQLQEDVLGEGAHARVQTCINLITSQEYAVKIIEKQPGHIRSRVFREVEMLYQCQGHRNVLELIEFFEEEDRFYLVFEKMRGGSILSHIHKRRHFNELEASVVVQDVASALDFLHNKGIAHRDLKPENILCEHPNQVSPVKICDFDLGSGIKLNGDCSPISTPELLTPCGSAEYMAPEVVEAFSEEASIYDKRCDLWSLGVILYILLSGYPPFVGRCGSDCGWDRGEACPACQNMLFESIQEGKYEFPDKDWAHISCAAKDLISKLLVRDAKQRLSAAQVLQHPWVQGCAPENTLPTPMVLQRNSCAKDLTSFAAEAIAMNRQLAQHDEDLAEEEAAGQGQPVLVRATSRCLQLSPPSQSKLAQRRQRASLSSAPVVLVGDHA
Experimental: 1. In Vitro Evaluation of Inhibitory Activity of Compounds Disclosed Herein Against MNK2 Protein Kinase
Purpose of experiment: to test the inhibitory activity of the compounds against MNK2 protein kinase
Experimental materials: assay buffer: 8 mM 3-(N-morpholino)propanesulfonic acid, 0.2 mM disodium ethylenediaminetetraacetate, 0.01% polyoxyethylene lauryl ether, 5% glycerol, 0.1% β-mercaptoethanol and 1 mg of bovine serum albumin
Experimental operation: Mnk2 protein kinase inhibitory activity assays were performed using the KinaseProfiler™ service from Eurofins Pharma Discovery Services UK Limited. Serially diluted DMSO solutions containing the compounds to be tested (3-fold serial dilution, starting from 10 μM), MNK2 (h) protein kinase and 0.33 mg/mL myelin basic protein were added to a freshly prepared buffer (pH 7.0), and then stirred homogeneously. The reaction was initiated by adding a mixture of ^33P-ATP (intensity of radioactivity: 10 μCi/μL) and 10 mM magnesium acetate. After the resulting mixture was reacted at room temperature for 40 min, the reaction was terminated by adding phosphoric acid to dilute to a concentration of 0.5%. 10 μL of the reaction solution was filtered using a P30 filtermat, and then the filtermat was washed four times with 0.425% phosphoric acid for 4 min each, followed by washing once with methanol. After drying, the intensity of radioactivity was determined using the Filter-Binding method.
The protein kinase inhibitory activity of the compounds was expressed as a percentage of the residual protein kinase activity relative to the blank substrate (DMSO alone). The Prism4 software package (GraphPad) was used to calculate IC50 values and fit curves.

MNK1 (h) protein kinase = MNK1 (h) protein kinase (Homo sapiens (Human), UniProt Q9BUB5); experiment: Inhibitory activity against MNK1 protein kinase (Kinase HotSpot Profiling, 33P-ATP); assay type: biochemical; conditions: 120 min room temperature
MNK1 (h) protein kinase, sequence (Q9BUB5 whole entry): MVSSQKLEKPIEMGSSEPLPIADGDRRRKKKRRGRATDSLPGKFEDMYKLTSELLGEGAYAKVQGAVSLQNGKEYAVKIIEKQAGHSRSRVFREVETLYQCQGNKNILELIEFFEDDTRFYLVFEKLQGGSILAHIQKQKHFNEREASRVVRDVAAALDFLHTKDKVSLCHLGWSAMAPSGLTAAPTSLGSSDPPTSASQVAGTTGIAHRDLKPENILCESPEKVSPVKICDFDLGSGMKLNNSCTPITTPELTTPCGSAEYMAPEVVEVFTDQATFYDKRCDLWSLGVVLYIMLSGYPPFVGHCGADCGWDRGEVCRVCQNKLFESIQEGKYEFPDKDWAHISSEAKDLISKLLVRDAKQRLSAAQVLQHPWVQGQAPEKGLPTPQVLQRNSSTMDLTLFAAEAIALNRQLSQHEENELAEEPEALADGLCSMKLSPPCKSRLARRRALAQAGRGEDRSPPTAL
Experimental: 2. In Vitro Evaluation of Inhibitory Activity of Compound Disclosed Herein Against MNK1 Protein Kinase
Purpose of experiment: to test the inhibitory activity of the compound against MNK1 protein kinase
Experimental materials: assay buffer: 20 mM 4-hydroxyethylpiperazine ethanesulfonic acid (pH 7.5), 10 mM magnesium chloride, 1 mM ethylene glycol-bis-(2-aminoethylether)-N,N,N′,N′-tetraacetic acid, 0.02% polyoxyethylene lauryl ether, 0.02 mg/mL bovine serum albumin, 0.1 mM sodium vanadate, 2 mM dithiothreitol, and 1% DMSO.
Experimental operation: Mnk1 protein kinase inhibitory activity assays were performed using the Kinase HotSpot Profiling service from Reaction Biology Corp. The substrate was added to a freshly prepared buffer, followed by addition of MNK1 (h). The mixture was stirred homogeneously. Serially diluted DMSO solution containing the compounds to be tested (3-fold serial dilution, starting from 3 μM) was added by using Echo550, and then ^33P-ATP (final intensity of radioactivity: 0.01 μCi/μl) was added to initiate the reaction. The mixture was pre-incubated at room temperature for 120 min. […] The concentration of the radioactive phosphorylated substrate remaining on the filter paper was measured.
The protein kinase inhibitory activity of the compound was expressed as a percentage of the residual protein kinase activity relative to the blank substrate (DMSO alone). […]

[3] = tested on: CT-26 mouse colon cancer graft tumor; experiment: In vivo efficacy in CT-26 mouse graft tumor; parameters: species or system mice; conditions: QD, 21-day treatment, CT-26 graft tumor
Experimental: 5. In Vivo Efficacy Experiment of Compound Disclosed Herein for CT-26 Mouse Graft Tumor
Purpose of experiment: to determine in vivo efficacy of compound for CT-26 mouse graft tumor
Experimental materials: CT-26 cells, RMPI-1640 medium containing 10% fetal bovine serum, and mice (female, Shanghai Sippe-Bk Lab Animal Co., Ltd.)
Experimental operation: CT-26 cells were cultured in RMPI-1640 medium containing 10% fetal bovine serum in an incubator at 37° C./5% CO2. Tumor cells were subcultured, and after an appropriate concentration was reached and the tumor cells were in the logarithmic growth phase, the tumor cells were collected, counted and then resuspended in DPBS (phosphate buffered solution), and the concentration of the cell suspension was adjusted to 3×10^6/mL for inoculation.
Establishment of mouse colon cancer graft tumor: cells were collected and adjusted to a concentration of 3×10^6 cells/mL (resuspended in DPBS to obtain cell suspension), and 0.1 mL of tumor cells was injected subcutaneously at the right dorsal side of the mice under sterile conditions, and 3×10^5 cells were inoculated for each mouse. After the tumor grew to a certain size, the length (a) and the width (b) of the tumor was measured by using a digital vernier caliper, and the tumor volume (TV) was calculated, wherein the calculation formula is as follows: TV=a×b^2/2.
CT-26 tumor cell inoculation: on the day of inoculation, animals were grouped (8 animals for each) according to the body weight and subjected to drug administration separately, and the day of inoculation was considered as D0. When the tumor size reached about 60 mm^3, the animals in the antibody groups were grouped according to the tumor size and the body weight. The body weight and tumor size of the animals were measured three times a week during the experiment, while clinical symptoms of the animals were observed and recorded daily, and for each administration, reference was made to the animal body weight measured most recently. The inhibitory effect of the compound on colon cancer graft tumor in mice was determined after 21-day treatment at a dose of 30 mg/Kg QD (once daily), 90 mg/Kg QD (once daily) and 200 mg/Kg QD (once daily), and the specific information is shown in Table 5 below.
The calculation formula of T/C (%) is as follows: T/C (%)=(TRTV/CRTV)×100%. TRTV is the relative tumor volume of the treatment group, and CRTV is the relative tumor volume of the negative control group; TGI (%)^a=(1−average tumor volume at the end of administration of a treatment group/average tumor volume at the end of treatment of the vehicle control group)×100%.

[4] = background statement; cited from earlier work
[5] = tested on: expression of PD-1, LAG3 and IL-10; conditions: background statement; cited from earlier work

| IC50 [2] [nM] | IC50 (MNK2 (h) protein kinase) [nM] | Compound | other results |
| --- | --- | --- | --- |
| 3.46 | 22 | Cc1cc(Nc2ncnn3cc(OCCN4CCCC4)c(C)c23)c(=O)n2c1C(=O)NC21CCCCC1 [Compound 1 (hydrochloride)] | bioavailability [1]: 32.5%; AUC(0-t) [1]: 0.956 µM·h; Cmax [1]: 35.9 nM; clearance [1]: 33.3 mL/min/kg; Vd [1]: 14.1 L/kg; IC50 (MNK1 (h) protein kinase): 54.6 nM |
|  | 63 | Cc1cc(Nc2ncnn3cc(OCCN4CCCC4)c(C)c23)c(=O)n2c1C(=O)NC21CCNCC1 [Compound 2 (hydrochloride)] |  |
|  | 39 | Cc1cc(Nc2ncnn3cc(OCCN4CCCC4)c(C)c23)c(=O)n2c1C(=O)NC21CCN(C)CC1 [Compound 3 (hydrochloride)] |  |
| 14 | 25 | Cc1c(OCCN2CCCC2)cn2ncnc(Nc3ccc4n(c3=O)C3(CCCCC3)NC4=O)c12 [Compound 4 (hydrochloride)] |  |
| 9.5 | 26 | Cc1c(OCCN2CCCC2)cn2ncnc(Nc3cc(F)c4n(c3=O)C3(CCCCC3)NC4=O)c12 [Compound 5 (hydrochloride)] |  |
| 0.66 | 21 | Cc1c(OCCN2CCCC2)cn2ncnc(Nc3cc(Cl)c4n(c3=O)C3(CCCCC3)NC4=O)c12 [Compound 6 (hydrochloride)] |  |
| 6.5 | 17 | Cc1cc(Nc2ncnn3cc(OCCN4CCCC4)c(C)c23)c(=O)n2c1C(=O)NC21CCCC1 [Compound 7 (hydrochloride)] | AUC(0-t) [1]: 1.39 µM·h; half-life [1]: 3.2 h; Cmax [1]: 131 nM |
| 24 | 33 | Cc1cc(Nc2ncnn3cc(OCCN4CCCC4)c(C)c23)c(=O)n2c1C(=O)NC2(C)C [Compound 8 (hydrochloride)] |  |
| 12 | 30 | Cc1cc(Nc2ncnn3cc(OCCN4CCCC4)c(C)c23)c(=O)n2c1C(=O)NC21CCC(F)(F)CC1 [Compound 9 (hydrochloride)] |  |
| 3.1 | 8 | Cc1c(OCCN2CCCC2)cn2ncnc(Nc3cc(Cl)c4n(c3=O)C3(CCCC3)NC4=O)c12 [Compound 10 (hydrochloride)] |  |
| 18.9 | 28 | Cc1cc(Nc2ncnn3cc(OCCN4CCC(F)(F)C4)c(C)c23)c(=O)n2c1C(=O)NC21CCCCC1 [Compound 11] | bioavailability [1]: 14.2%; AUC(0-t) [1]: 0.405 µM·h; half-life [1]: 12.1 h; Cmax [1]: 104 nM; clearance [1]: 21.8 mL/min/kg; Vd [1]: 2.53 L/kg |
| 8.6 |  | Cc1cc(Nc2ncnn3cc(OCCN4CCC(F)(F)C4)c(C)c23)c(=O)n2c1C(=O)NC21CCCC1 [Compound 12] | T/C % ([3]; 30 mg/Kg): 36.43%; TGI % ([3]; 30 mg/Kg): 63.57%; T/C % ([3]; 90 mg/Kg): 31.11%; TGI % ([3]; 90 mg/Kg): 68.89%; T/C % ([3]; 200 mg/Kg): 33.31%; TGI % ([3]; 200 mg/Kg): 68.51% |
| 10.5 | 14 | Cc1cc(Nc2ncnn3cc(OC[C@H](C)N4CCCC4)c(C)c23)c(=O)n2c1C(=O)NC21CCCC1 [Compound 13] |  |
|  | 28 | Cc1cc(Nc2ncnn3cc(OCC4CCNC4)c(C)c23)c(=O)n2c1C(=O)NC21CCCCC1 (stereo not shown) [Compound 15 (hydrochloride)] |  |
| 2.8 | 27 | Cc1cc(Nc2ncnn3cc(OCC4CCN(C)C4)c(C)c23)c(=O)n2c1C(=O)NC21CCCCC1 (stereo not shown) [Compound 16 (hydrochloride)] |  |
|  |  | Cc1cc(Nc2cc(N)ncn2)c(=O)n2c1C(=O)NC21CCCCC1 [eFT508] | safety in phase I clinical trial [4]: good safety; effect on expression of PD-1, LAG3 and IL-10 [5]: selectively inhibit the expression of PD-1, LAG3 and IL-10 |
